Usually CC50 stands for the concentration that lowers cell viability or growth by half. For orientation: AC50 means the midpoint of the concentration-response curve, whichever way the signal moves. The term EC50 denotes the midpoint of the concentration-response curve. A word on the IC50: it is the point on the concentration scale where inhibition reaches its midpoint.

Assay [1] is described as follows: viability of uninfected HEp-2 cells – cell-based, HTS, cytotoxicity control for RSV inhibitor project, dose response (AID 2410). The class given is functional. The conditions noted are these: human respiratory syncytial virus.
The target of a further assay is Cytochrome P450 2C19 (Homo sapiens, UniProt P33261). Nature of the assay: Cytochrome panel assay with activity outcomes. Panel member name: p450-cyp2c19 Compounds with AC50 equal or less than 10 uM are considered active. The class given is functional. The conditions noted are these: read-out: AC50.
Chain of Cytochrome P450 2C19 (P33261 whole entry): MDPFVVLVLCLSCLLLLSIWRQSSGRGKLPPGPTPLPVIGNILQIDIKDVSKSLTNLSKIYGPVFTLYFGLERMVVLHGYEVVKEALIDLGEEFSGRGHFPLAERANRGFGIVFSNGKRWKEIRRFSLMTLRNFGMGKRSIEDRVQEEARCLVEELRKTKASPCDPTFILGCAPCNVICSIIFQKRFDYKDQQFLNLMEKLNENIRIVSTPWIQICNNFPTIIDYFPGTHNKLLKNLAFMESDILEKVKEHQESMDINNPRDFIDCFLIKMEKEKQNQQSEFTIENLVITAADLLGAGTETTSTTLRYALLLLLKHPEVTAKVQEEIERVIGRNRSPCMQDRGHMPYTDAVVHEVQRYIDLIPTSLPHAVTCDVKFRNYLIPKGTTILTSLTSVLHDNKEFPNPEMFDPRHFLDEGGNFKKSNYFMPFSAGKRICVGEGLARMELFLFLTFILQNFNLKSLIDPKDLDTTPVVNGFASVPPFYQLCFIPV
Another assay has as its target Cytochrome P450 2C9 (Homo sapiens, UniProt P11712).
Assay [2] has as its target Voltage-gated inwardly rectifying potassium channel KCNH2 (Homo sapiens, UniProt Q12809). The conditions noted are these: Potency.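 Note: confirmatory quantitative high-throughput screen measuring inhibition of hERG channel activity.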
Assay [3] in a line: Luminescence Cell-Based Dose Retest to Confirm Inhibitors of Cancer Stem Cells. [Related pubchem assays (depositor defined):AID2717, AID2721]. The class given is functional. The conditions noted are these: Homo sapiens.
Assay [4] can be described thus: viability loss of HMLE_sh_eGFP cells – cell-based, luminescence, counter-screen for HMLE_sh_ECad selective toxicity project, dose response (AID 463074).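 Note: HMLE human mammary epithelial cells expressing control shRNA against eGFP.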 The class given is functional, Homo sapiens.
Assay [5] is described as follows: Trypanosoma cruzi growth suppression in host cells – NIH3T3 host cells, beta-gal luminescence, confirmation (AID 2044).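 Note: intracellular parasites grown in NIH/3T3 mouse fibroblasts as host cells; luminescent beta-galactosidase reporter signal from transgenic T. cruzi replicating inside host cells; inhibitors lower the luminescence signal.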 The format is functional, cell-based.
Assay [6] can be described thus: NIH3T3 cell viability loss – ATP luminescence, mouse fibroblasts, counter-screen, dose response (AID 2010).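 Note: cells exposed to compound for about 90 hours before reading.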 The class given is functional, cell-based.
Another assay addresses Beta-galactosidase (Escherichia coli, UniProt Q8VNN2). Nature of the assay: PubChem AID 485352. The format is functional.
Assay [7] addresses T1, Type-1 angiotensin II receptor (Homo sapiens, UniProt P30556).
T1 sequence (P30556 whole entry): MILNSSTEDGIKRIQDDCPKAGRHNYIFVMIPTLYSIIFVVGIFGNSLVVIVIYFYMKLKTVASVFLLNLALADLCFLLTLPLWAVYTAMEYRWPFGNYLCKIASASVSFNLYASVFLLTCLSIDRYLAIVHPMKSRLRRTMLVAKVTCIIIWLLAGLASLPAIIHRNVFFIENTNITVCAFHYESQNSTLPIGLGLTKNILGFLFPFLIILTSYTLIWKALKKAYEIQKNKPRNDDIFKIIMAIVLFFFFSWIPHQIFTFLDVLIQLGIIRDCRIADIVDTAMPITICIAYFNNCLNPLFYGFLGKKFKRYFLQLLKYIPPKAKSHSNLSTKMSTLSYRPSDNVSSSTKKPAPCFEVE
Nature of the assay: antagonism of angiotensin II type 1 receptor – cell-based, uHTS hits, selectivity assay for APJ receptor antagonist project, dose response (AID 463214).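 Note: antagonist potency against angiotensin II stimulated AT1 response.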 The format is functional.

A short description of assay [8]: NIH-3T3 fibroblast cytotoxicity, dose response, cytotoxicity control, cell-based, fluorescence, Alamar Blue, secondary assay (AID 2327).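 Note: NIH-3T3 mouse fibroblasts cultured with fluconazole at 8 µg/mL.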 The class given is functional.
Assay [9] can be described thus: fluconazole-exposed Candida albicans growth modulators – fluorescence, retest, confirmation (AID 2467). The format is functional, cell-based.
Assay [10] has as its target T2, Serine/threonine-protein phosphatase (Candida dubliniensis (strain CD36 / CBS 7987 / NCPF 3949 / NRRLY-17841) (Yeast), UniProt B9W6M3).
T2 sequence (B9W6M3 whole entry): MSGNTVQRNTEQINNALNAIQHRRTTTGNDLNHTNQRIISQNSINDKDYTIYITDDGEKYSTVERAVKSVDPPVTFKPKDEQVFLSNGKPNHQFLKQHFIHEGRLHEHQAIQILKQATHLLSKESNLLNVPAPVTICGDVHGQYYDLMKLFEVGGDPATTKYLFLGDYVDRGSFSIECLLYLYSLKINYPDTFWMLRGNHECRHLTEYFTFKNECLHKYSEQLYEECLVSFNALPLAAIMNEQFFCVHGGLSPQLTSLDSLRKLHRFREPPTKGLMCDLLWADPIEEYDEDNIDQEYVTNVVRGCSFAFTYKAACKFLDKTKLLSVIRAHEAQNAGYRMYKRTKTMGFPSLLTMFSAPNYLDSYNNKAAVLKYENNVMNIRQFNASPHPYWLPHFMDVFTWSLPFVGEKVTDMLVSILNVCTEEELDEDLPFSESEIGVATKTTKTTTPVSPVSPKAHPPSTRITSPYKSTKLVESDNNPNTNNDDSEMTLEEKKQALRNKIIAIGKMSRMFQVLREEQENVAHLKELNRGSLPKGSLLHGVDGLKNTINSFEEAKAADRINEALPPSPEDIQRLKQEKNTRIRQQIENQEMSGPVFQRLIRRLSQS
Put plainly: blockers of CaCl2-induced CDRE-lacZ signaling – S. cerevisiae, luminescence, secondary, dose response (AID 2388).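 Note: yeast reporter cells carrying a calcineurin-responsive lacZ construct stimulated with calcium chloride; luminescent beta-galactosidase reporter signal in whole cells rather than isolated phosphatase activity; potency for inhibition where a drop in reporter signal means calcineurin blockade.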 The format is functional, cell-based.

Assay [11] deals with ATP-dependent molecular chaperone HSP82 (Candida albicans (strain WO-1) (Yeast), UniProt C4YTQ8). Nature of the assay: steroid-induced GRE reporter decrease in yeast – S. cerevisiae, luminescence, Hsp90 inhibitor project, dose response (AID 2400).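 Note: beta-galactosidase luminescence from glucocorticoid response element reporter as proxy for Hsp90 function; inhibitor potency where signal loss means Hsp90 inhibition.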 The class given is functional, cell-based.
Chain of ATP-dependent molecular chaperone HSP82 (C4YTQ8 whole entry): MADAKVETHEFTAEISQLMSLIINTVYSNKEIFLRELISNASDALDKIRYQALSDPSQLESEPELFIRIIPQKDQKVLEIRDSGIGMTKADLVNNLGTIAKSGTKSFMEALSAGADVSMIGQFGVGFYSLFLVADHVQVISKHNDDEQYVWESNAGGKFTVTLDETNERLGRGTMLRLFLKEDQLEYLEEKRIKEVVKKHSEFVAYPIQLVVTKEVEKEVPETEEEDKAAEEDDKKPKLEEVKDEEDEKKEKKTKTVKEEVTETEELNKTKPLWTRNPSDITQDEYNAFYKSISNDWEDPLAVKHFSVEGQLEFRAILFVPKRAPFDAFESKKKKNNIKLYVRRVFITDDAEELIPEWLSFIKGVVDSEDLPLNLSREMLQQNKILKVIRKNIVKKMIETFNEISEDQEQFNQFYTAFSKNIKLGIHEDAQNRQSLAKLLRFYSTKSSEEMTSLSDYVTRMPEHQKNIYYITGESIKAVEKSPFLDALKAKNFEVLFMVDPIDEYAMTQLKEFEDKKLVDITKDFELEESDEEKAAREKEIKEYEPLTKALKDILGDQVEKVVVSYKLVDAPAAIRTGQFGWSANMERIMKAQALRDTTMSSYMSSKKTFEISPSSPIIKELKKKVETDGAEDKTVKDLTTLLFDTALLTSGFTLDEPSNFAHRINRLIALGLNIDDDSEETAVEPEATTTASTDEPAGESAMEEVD
The target of assay [12] is Peroxisome proliferator-activated receptor gamma/Nuclear receptor coactivator 1 (Homo sapiens, UniProt P37231). Put plainly: TR-FRET dose response biochemical High Throughput Screening assay for agonists of the steroid receptor coactivator 1 (SRC-1) recruitment by the peroxisome proliferator-activated receptor gamma (PPAR gamma): non-selective agonists. [Related pubchem assays (depositor defined):AID1300, AID1808, AID504735, AID631]. The class given is protein assay. (TR-FRET usually uses a lanthanide donor and a delayed reading to cut background.)

Assay [13] deals with Peroxisome proliferator-activated receptor gamma/Nuclear receptor coactivator 3 (Homo sapiens, UniProt P37231). Nature of the assay: TR-FRET dose response biochemical High Throughput Screening assay for agonists of the steroid receptor coactivator 3 (SRC-3) recruitment by the peroxisome proliferator-activated receptor gamma (PPAR gamma): non-selective agonists. [Related pubchem assays: 1301 (Confirmation screen.), 1048 (Primary screen.)]. The class given is functional.

In assay [14] the target is Peroxisome proliferator-activated receptor gamma/Nuclear receptor coactivator 2 (Homo sapiens, UniProt P37231). Put plainly: TR-FRET dose response biochemical High Throughput Screening assay for agonists of the steroid receptor coactivator 2 (SRC-2) recruitment by the peroxisome proliferator-activated receptor gamma (PPAR gamma): non-selective agonists. [Related pubchem assays: 1297, 1032 ]. The class given is functional.

Assay [15] deals with Dual specificity tyrosine-phosphorylation-regulated kinase 1A (Rattus norvegicus, UniProt Q63470). The class given is biochemical, Homo sapiens.
Assay [16] concerns the target T3, Rac GTPase-activating protein 1 (Homo sapiens, UniProt Q9H0H5).
T3 sequence (Q9H0H5 whole entry): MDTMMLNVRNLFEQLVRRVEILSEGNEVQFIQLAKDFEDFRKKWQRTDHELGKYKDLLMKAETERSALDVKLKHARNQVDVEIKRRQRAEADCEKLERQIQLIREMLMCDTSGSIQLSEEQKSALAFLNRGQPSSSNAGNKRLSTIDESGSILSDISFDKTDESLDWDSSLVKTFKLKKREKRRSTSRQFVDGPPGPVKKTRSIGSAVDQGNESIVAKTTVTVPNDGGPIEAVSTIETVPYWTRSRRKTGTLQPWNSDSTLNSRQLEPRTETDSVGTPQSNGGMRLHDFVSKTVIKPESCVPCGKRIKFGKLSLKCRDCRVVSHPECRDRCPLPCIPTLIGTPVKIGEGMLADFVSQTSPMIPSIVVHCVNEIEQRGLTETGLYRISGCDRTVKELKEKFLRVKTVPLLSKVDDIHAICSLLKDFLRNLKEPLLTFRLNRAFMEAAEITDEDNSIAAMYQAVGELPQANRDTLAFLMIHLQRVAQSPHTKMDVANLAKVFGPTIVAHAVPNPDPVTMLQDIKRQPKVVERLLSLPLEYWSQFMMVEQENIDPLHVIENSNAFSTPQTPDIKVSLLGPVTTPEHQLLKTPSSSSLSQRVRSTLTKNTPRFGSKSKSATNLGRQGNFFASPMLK
Nature of the assay: blockers of MgcRacGAP-driven Rac1 GTP hydrolysis – biochemical, ADP Hunter fluorescence, primary and confirmatory, confirmation (AID 624330). The format is functional.

The nature of assay [17]: cells. The class given is functional, cell-based.
The nature of assay [18]: cells. The class given is functional, cell-based. The source holds these as a separate data set.
In assay [19] the target is Heat shock protein HSP 90-alpha (Homo sapiens, UniProt P07900). The class given is functional, organism-based.
Another assay has as its system INS1. Nature of the assay: INS-1E survival protection against cytokine death – cell-based, luminescence, retest, dose response (AID 449756).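 Note: cell death triggered by IL-1 beta plus TNF-alpha plus IFN-gamma mixture; protective hits raise ATP signal compared with cytokine alone wells.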 The format is functional. The conditions noted are these: Rattus norvegicus.
A short description of assay [20]: M. tuberculosis H37Rv growth inhibitors, H37Rv strain (AID 1626). The class given is functional.

The structures appear in SMILES notation. The source made the active and inactive calls.

Chain of Voltage-gated inwardly rectifying potassium channel KCNH2 (Q12809 whole entry): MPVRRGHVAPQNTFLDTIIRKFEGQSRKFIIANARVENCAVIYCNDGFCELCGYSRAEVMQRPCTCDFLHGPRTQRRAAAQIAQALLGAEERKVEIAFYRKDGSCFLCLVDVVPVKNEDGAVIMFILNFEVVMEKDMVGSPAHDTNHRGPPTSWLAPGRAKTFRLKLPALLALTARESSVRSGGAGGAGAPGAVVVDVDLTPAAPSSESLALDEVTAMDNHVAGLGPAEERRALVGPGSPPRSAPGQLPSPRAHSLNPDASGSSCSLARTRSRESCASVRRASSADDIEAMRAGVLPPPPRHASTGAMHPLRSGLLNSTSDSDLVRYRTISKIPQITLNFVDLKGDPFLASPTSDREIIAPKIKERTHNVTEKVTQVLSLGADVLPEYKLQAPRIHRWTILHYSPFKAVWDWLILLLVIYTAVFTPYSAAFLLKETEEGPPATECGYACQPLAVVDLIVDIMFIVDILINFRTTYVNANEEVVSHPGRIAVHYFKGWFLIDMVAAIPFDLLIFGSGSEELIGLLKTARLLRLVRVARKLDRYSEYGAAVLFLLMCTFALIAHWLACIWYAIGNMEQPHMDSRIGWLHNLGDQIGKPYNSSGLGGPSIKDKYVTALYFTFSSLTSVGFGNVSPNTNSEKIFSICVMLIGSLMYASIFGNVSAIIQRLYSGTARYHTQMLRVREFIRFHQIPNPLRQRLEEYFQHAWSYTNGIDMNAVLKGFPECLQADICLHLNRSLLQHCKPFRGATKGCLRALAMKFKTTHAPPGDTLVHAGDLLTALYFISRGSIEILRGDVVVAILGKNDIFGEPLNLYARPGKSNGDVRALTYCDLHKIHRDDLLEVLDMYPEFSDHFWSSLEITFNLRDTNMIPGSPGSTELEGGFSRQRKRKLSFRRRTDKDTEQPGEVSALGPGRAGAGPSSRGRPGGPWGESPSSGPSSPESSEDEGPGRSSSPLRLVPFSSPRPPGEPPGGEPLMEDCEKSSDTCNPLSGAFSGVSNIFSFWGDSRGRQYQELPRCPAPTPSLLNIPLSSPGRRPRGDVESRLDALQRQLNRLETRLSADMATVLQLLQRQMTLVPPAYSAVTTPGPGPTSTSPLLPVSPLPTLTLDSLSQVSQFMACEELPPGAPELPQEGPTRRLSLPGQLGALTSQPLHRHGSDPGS
Chain of Beta-galactosidase (Q8VNN2 whole entry): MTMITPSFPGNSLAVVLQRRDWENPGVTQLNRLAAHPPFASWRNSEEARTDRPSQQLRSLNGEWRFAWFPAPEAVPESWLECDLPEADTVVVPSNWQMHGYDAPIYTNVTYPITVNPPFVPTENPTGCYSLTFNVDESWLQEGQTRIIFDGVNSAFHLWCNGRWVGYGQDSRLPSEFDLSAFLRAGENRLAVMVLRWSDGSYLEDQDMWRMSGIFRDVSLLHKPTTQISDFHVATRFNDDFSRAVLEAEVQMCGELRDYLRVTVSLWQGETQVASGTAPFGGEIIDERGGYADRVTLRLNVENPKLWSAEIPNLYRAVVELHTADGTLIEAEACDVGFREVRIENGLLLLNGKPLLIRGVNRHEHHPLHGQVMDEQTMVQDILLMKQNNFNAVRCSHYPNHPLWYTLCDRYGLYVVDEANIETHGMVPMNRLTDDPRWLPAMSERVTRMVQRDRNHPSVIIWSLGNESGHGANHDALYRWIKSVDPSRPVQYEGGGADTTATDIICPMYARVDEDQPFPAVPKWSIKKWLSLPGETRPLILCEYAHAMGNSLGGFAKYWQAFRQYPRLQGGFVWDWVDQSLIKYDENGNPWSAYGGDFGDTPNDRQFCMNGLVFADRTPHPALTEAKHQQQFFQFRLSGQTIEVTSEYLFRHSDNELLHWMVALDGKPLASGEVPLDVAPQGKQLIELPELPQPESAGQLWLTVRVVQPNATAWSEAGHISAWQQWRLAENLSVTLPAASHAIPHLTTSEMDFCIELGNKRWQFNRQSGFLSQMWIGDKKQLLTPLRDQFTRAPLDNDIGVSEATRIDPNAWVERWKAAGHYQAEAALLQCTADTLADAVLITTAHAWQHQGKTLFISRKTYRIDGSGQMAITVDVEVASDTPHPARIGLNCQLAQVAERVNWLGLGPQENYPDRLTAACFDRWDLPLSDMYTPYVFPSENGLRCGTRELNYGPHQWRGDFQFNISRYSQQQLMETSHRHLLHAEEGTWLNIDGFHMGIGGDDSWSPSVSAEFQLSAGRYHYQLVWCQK
Chain of Cytochrome P450 2C9 (P11712 whole entry): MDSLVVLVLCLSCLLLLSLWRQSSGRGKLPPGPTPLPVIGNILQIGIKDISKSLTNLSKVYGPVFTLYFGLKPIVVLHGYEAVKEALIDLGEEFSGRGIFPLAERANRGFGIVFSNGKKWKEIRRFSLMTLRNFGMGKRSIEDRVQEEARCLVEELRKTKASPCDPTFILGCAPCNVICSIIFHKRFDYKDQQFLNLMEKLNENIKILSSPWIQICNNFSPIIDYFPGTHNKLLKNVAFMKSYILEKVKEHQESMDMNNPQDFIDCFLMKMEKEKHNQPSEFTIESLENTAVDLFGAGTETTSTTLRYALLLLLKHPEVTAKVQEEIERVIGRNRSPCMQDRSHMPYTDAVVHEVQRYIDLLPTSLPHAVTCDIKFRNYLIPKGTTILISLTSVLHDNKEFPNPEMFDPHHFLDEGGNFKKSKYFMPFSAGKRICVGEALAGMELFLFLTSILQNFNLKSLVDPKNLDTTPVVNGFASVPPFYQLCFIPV

Turning to `CCCOC(=O)c1c(-c2ccccc2)nc(CC)c(C(=O)SCC)c1CCC`, the CC50 in [1] is 35.6 µM (active). The values for the AC50 (at Cytochrome P450 2C19; on Cytochrome P450 2C9; in assay [2]) were 39.8 µM (inconclusive), 7.94 µM (inconclusive) and 15.8 µM (inconclusive), respectively.

Consider `CC(=O)c1cccc(NS(=O)(=O)c2cc(-c3cnc(C4CC4)o3)ccc2C)c1`, for which the AC50 is 1.03 µM (active) in assay [3] and 25 µM (active) in [4].

Consider `O=C(C1=C[C@H](c2ccc(C(F)(F)F)cc2)C[C@H](OCc2ccc(CO)cc2)O1)N1CCN(Cc2ccc3c(c2)OCO3)CC1`, for which the EC50 in [5] was 0.265 µM (active); in assay [6], > 60 µM (not active). In addition, the AC50 in assay [3] is 4.74 µM (active); in [4], 25.8 µM (active).

Regarding `O=C(CNC(=O)c1ccco1)NCC(=O)OCC(=O)c1ccc(Cl)c([N+](=O)[O-])c1`, the EC50 on Beta-galactosidase was > 40 µM (inactive). In addition, in assay [7], the 50% inhibitory concentration (IC50) was 7.54 µM (active).

For `O=C(c1cccc(Br)c1)c1coc2ccc(O)cc12`, the AC50 is 0.913 µM (active) in [3] and 23.1 µM (active) in assay [4].

With `Nc1c(S(=O)(=O)c2ccccc2)c2nc3ccccc3nc2n1CCN1CCOCC1`, the EC50 in assay [8] is > 160 µM (inactive); in assay [9], 0.874 µM (active); in [10], > 180 µM (inactive); in assay [11] it was > 160 µM (inactive).

On to `COc1cc(-c2nc3ccccc3s2)ccc1O`, for which the results for the EC50 in [12], in [13] and in assay [14] were 11.7 µM (inactive), > 79.4 µM (not active) and 13 µM (not active), respectively. The AC50 in assay [15] was 7.81 µM (active). For the same compound, in [16], the IC50 is 16.1 µM (active).

Turning to `CNC(=O)Nc1cc(C(F)(F)F)cc(C(F)(F)F)c1`, the EC50 in [8] was > 150 µM (inactive); in assay [9] it was 1.34 µM (active); in assay [10], > 180 µM (inactive); in assay [11], > 150 µM (inactive).

With `COc1cccc(/C=N/NC(=O)C(=O)Nc2ccccc2OC(F)(F)C(F)F)c1O`, the EC50 was > 160 µM (inactive) in [8]; 92.8 µM (active) in the assay “cells [17]”; 0.46 µM (active) in assay [9]; > 350 µM (not active) in “cells [18]”; > 180 µM (inactive) in [10]; 10.6 µM (active) in assay [11]. In addition, the AC50 was 4.2 µM (active) in assay [19] and 2.77 µM (active) in the assay on INS1.

`COc1ccc(/N=C2/C(=O)N3c4c(cccc42)C(C)=CC3(C)C)cc1`: at Beta-galactosidase, the EC50 was > 40 µM (inactive). In addition, the IC50 in [20] is > 100 µM (active); in assay [7], > 40 µM (not active).

Regarding `Cc1cc(C(C)(C)C)c(O)c(C(C)(C)C)c1` [BUTYLATED HYDROXYTOLUENE], the AC50 in [2] is 11.2 µM (inconclusive).

As to `c1ccc(NNc2ccccc2)cc1` [HYDRAZOBENZENE], the AC50 in assay [2] is 35.5 µM (inconclusive).
